Legend:
Conditions in all cases: main component drawn
S. pneumoniae D39V [1] = assay: fitness (endpoint OD595 vs no drug) (fraction); higher = more growth
Summary of the method: (§1)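 At 37 °C, bacteria in TSB, LB Lennox or CY were grown in 384-well plates from a starting OD595 of 0.01. OD595 was measured every 30 min for 14 h, with the first reading used as background. Fitness is the optical density at the switch to stationary phase as a fraction of the robust mean of no-drug control wells, capped at 1.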

B. subtilis 168 [2] = assay: as above
Summary of the method: as §1

S. aureus Newman = assay: Bliss interaction score (quartile over a dose matrix) (fitness difference); higher = more antagonism (negative = synergy)
Summary of the method: (§2)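 Fitness was defined as normalised growth: OD595 at the start of stationary phase divided by the plate's robust no-drug mean and capped at 1. Single-drug fitness was inferred from combination measurements. The Bliss score is observed fitness minus the product of the single-drug values, summarised by quartiles across technical, biological and donor/recipient replicates.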

S. pneumoniae D39V [3] = assay: as above
Summary of the method: as §2

B. subtilis 168 [4] = assay: as above
Summary of the method: as §2

S. aureus DSM 20231 = assay: as above
Summary of the method: as §2
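Wherever Bliss interaction score (quartile over a dose matrix) is given: first quartile when negative (synergy) and third quartile when positive (antagonism).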
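Wherever fitness (endpoint OD595 vs no drug) is given: OD595 on entry to stationary phase over no-drug wells; at most 1.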

C[C@H]1c2cccc(O)c2C(=O)C2=C(O)[C@]3(O)C(=O)C(C(N)=O)=C(O)[C@@H](N(C)C)[C@@H]3[C@@H](O)[C@@H]21 [Doxycycline] + CCC(C)C1C(=O)NC(=C)C(=O)NC(C(=O)NC(CSCC(C(=O)N1)NC(=O)/C(=C/C)/NC(=O)C(C(C)CC)N)C(=O)NC2C(SCC(NC(=O)CNC(=O)C3CCCN3C2=O)C(=O)NC(CCCCN)C(=O)NC4C(SCC(NC(=O)CNC(=O)C(NC(=O)C(NC(=O)C(NC(=O)CNC4=O)C)CC(C)C)CCSC)C(=O)NC(CC(=O)N)C(=O)NC(CCSC)C(=O)NC(CCCCN)C(=O)NC5C(SCC6C(=O)NC(C(=O)NC(CSC(C(C(=O)N6)NC(=O)C(NC5=O)C)C)C(=O)NC(CO)C(=O)NC(C(C)CC)C(=O)NC(CC7=CN=CN7)C(=O)NC(C(C)C)C(=O)NC(=C)C(=O)NC(CCCCN)C(=O)O)CC8=CN=CN8)C)C)C)CC(C)C [Nisin]
fitness, one replicate
Conditions	partner 1.25 µg/mL	partner 1.6 µg/mL	partner 2.5 µg/mL	partner 3.2 µg/mL	partner 4 µg/mL	partner 5 µg/mL	partner 6.4 µg/mL	partner 8 µg/mL	partner 16 µg/mL
B. subtilis 168 [2], first compound 0.02 µg/mL	0.915	0.287	0.481	0.0387	0.0411	0.0601	0.0419	0.0354	0.0177
B. subtilis 168 [2], first compound 0.04 µg/mL	0.935	0.358	0.464	0.0224	0.137	0.0251	0.035	0.0271	0.024
B. subtilis 168 [2], first compound 0.08 µg/mL	0.594	0.0173	0.165	0.0251	0.0169	0.0318	0.0245	0.0228	0.0199
S. pneumoniae D39V [1], first compound 0.003875 µg/mL	–	0.0092	–	0	–	–	0.0176	–	–
S. pneumoniae D39V [1], first compound 0.00775 µg/mL	–	0.0172	–	0	–	–	0.0097	–	–
S. pneumoniae D39V [1], first compound 0.031 µg/mL	–	0.222	–	0.0345	–	–	0	–	–
S. pneumoniae D39V [1], first compound 0.062 µg/mL	–	0.0897	–	0.0057	–	–	0.0088	–	–

Conditions	fitness
B. subtilis 168 [2], first compound 0.02 µg/mL, partner 0.5 µg/mL	0.836
B. subtilis 168 [2], first compound 0.02 µg/mL, partner 1 µg/mL	0.809
B. subtilis 168 [2], first compound 0.02 µg/mL, partner 2 µg/mL	0.476
B. subtilis 168 [2], first compound 0.04 µg/mL, partner 0.5 µg/mL	0.755
B. subtilis 168 [2], first compound 0.04 µg/mL, partner 1 µg/mL	0.741
B. subtilis 168 [2], first compound 0.04 µg/mL, partner 2 µg/mL	0.403
B. subtilis 168 [2], first compound 0.08 µg/mL, partner 0.5 µg/mL	0.61
B. subtilis 168 [2], first compound 0.08 µg/mL, partner 1 µg/mL	0.541
B. subtilis 168 [2], first compound 0.08 µg/mL, partner 2 µg/mL	0.0887
S. pneumoniae D39V [1], first compound 0.0155 µg/mL, partner 0.4275 µg/mL	0.935
S. pneumoniae D39V [1], first compound 0.0155 µg/mL, partner 0.855 µg/mL	0.803
S. pneumoniae D39V [1], first compound 0.0155 µg/mL, partner 1.6 µg/mL	0.192
S. pneumoniae D39V [1], first compound 0.0155 µg/mL, partner 1.71 µg/mL	0.0645
S. pneumoniae D39V [1], first compound 0.0155 µg/mL, partner 3.2 µg/mL	0.017
S. pneumoniae D39V [1], first compound 0.0155 µg/mL, partner 6.4 µg/mL	0.0088
S. pneumoniae D39V [1], first compound 0.031 µg/mL, partner 0.4275 µg/mL	0.89
S. pneumoniae D39V [1], first compound 0.031 µg/mL, partner 0.855 µg/mL	0.596
S. pneumoniae D39V [1], first compound 0.031 µg/mL, partner 1.71 µg/mL	0.0413
S. pneumoniae D39V [1], first compound 0.062 µg/mL, partner 0.4275 µg/mL	0.846
S. pneumoniae D39V [1], first compound 0.062 µg/mL, partner 1.71 µg/mL	0.0711

Conditions	Bliss interaction score
B. subtilis 168 [4]	0.0503
S. aureus DSM 20231	-0.0392
S. aureus Newman	0.0561
S. pneumoniae D39V [3]	-0.161

CO/N=C(\C(=O)N[C@@H]1C(=O)N2C(C(=O)O)=C(COC(N)=O)CS[C@H]12)c1ccco1 [Cefuroxime] + CCC(C)C1C(=O)NC(=C)C(=O)NC(C(=O)NC(CSCC(C(=O)N1)NC(=O)/C(=C/C)/NC(=O)C(C(C)CC)N)C(=O)NC2C(SCC(NC(=O)CNC(=O)C3CCCN3C2=O)C(=O)NC(CCCCN)C(=O)NC4C(SCC(NC(=O)CNC(=O)C(NC(=O)C(NC(=O)C(NC(=O)CNC4=O)C)CC(C)C)CCSC)C(=O)NC(CC(=O)N)C(=O)NC(CCSC)C(=O)NC(CCCCN)C(=O)NC5C(SCC6C(=O)NC(C(=O)NC(CSC(C(C(=O)N6)NC(=O)C(NC5=O)C)C)C(=O)NC(CO)C(=O)NC(C(C)CC)C(=O)NC(CC7=CN=CN7)C(=O)NC(C(C)C)C(=O)NC(=C)C(=O)NC(CCCCN)C(=O)O)CC8=CN=CN8)C)C)C)CC(C)C [Nisin]
B. subtilis 168 [2], one replicate
Conditions	fitness
first compound 0.04875 µg/mL, partner 0.5 µg/mL	0.608
first compound 0.04875 µg/mL, partner 1 µg/mL	0.529
first compound 0.04875 µg/mL, partner 2 µg/mL	0.417
first compound 0.04875 µg/mL, partner 4 µg/mL	0.0351
first compound 0.04875 µg/mL, partner 8 µg/mL	0.0258
first compound 0.04875 µg/mL, partner 16 µg/mL	0.0482
first compound 0.0975 µg/mL, partner 0.5 µg/mL	0.471
first compound 0.0975 µg/mL, partner 1 µg/mL	0.427
first compound 0.0975 µg/mL, partner 2 µg/mL	0.261
first compound 0.0975 µg/mL, partner 4 µg/mL	0.032
first compound 0.0975 µg/mL, partner 8 µg/mL	0.0195
first compound 0.0975 µg/mL, partner 16 µg/mL	0.02
first compound 0.195 µg/mL, partner 0.5 µg/mL	0.385
first compound 0.195 µg/mL, partner 1 µg/mL	0.382
first compound 0.195 µg/mL, partner 1.25 µg/mL	0.173
first compound 0.195 µg/mL, partner 1.6 µg/mL	0.0755
first compound 0.195 µg/mL, partner 2 µg/mL	0.278
first compound 0.195 µg/mL, partner 2.5 µg/mL	0.0381
first compound 0.195 µg/mL, partner 3.2 µg/mL	0.0377
first compound 0.195 µg/mL, partner 4 µg/mL	0.0274
first compound 0.195 µg/mL, partner 5 µg/mL	0.0619
first compound 0.195 µg/mL, partner 6.4 µg/mL	0.0264
first compound 0.195 µg/mL, partner 8 µg/mL	0.0204
first compound 0.195 µg/mL, partner 16 µg/mL	0.0103
first compound 0.39 µg/mL, partner 1.25 µg/mL	0.086
first compound 0.39 µg/mL, partner 1.6 µg/mL	0.0435
first compound 0.39 µg/mL, partner 2.5 µg/mL	0.0309
first compound 0.39 µg/mL, partner 3.2 µg/mL	0.0108
first compound 0.39 µg/mL, partner 5 µg/mL	0.0219
first compound 0.39 µg/mL, partner 6.4 µg/mL	0.0352
first compound 0.78 µg/mL, partner 1.25 µg/mL	0.0678
first compound 0.78 µg/mL, partner 1.6 µg/mL	0.0281
first compound 0.78 µg/mL, partner 2.5 µg/mL	0.0242
first compound 0.78 µg/mL, partner 3.2 µg/mL	0.0058
first compound 0.78 µg/mL, partner 5 µg/mL	0.0235
first compound 0.78 µg/mL, partner 6.4 µg/mL	0.0238
first compound 1.562 µg/mL, partner 0.5 µg/mL	0.257
first compound 1.562 µg/mL, partner 1 µg/mL	0.0875
first compound 1.562 µg/mL, partner 2 µg/mL	0.038
first compound 3.125 µg/mL, partner 0.5 µg/mL	0.173
first compound 3.125 µg/mL, partner 1 µg/mL	0.0836
first compound 3.125 µg/mL, partner 2 µg/mL	0.02
first compound 6.25 µg/mL, partner 0.5 µg/mL	0.105
first compound 6.25 µg/mL, partner 1 µg/mL	0.0185
first compound 6.25 µg/mL, partner 2 µg/mL	0.0198

Conditions	Bliss interaction score
B. subtilis 168 [4]	-0.0638
S. aureus DSM 20231	-0.109
S. aureus Newman	-0.331
S. pneumoniae D39V [3]	0.0468

Reference: the supplement of paper PMC10627819
